The results in this text go back to patent US10857138B2, “Pharmaceutical compositions comprising antibacterial agents” (WOCKHARDT LIMITED, priority 2014, dated 2020).

Assay [1] deals with Klebsiella pneumoniae NCTC 13443 strain producing NDM-1, SHV and TEM beta-lactamase enzymes. Description: Time kill study against K. pneumoniae NCTC 13443. It is filed as cell-based. The conditions noted are these: for Bacterial count (Log10CFU/ml) 2 hours / Bacterial count (Log10CFU/ml) 4 hours / Bacterial count (Log10CFU/ml) 6 hours / Bacterial count (Log10CFU/ml) 8 hours: each agent at 4 mcg/ml, alone or in combination. As to the method: (§1) In a typical time kill study, the freshly grown cultures were diluted to the required cell density (initial starting inoculum) in Cation adjusted Muller Hinton broth medium (BD, USA). The antibacterial agents (either alone or in combination) at the required concentrations were added into the culture-containing medium. The samples were incubated under shaking condition (120 rpm) at 37° C. Enumeration of viable bacterial count was done every 2 hour by diluting in normal saline and plating on to the Tryptic Soya Agar plates (BD, USA). The plates were incubated for 24 hours to arrive at the viable bacterial count. […] In general, the decrease of 1 Log CFU/ml, corresponds to 90% killing of bacteria. Similarly, 2 Log CFU/ml reductions indicates to 99% killing of bacteria and 3 Log CFU/ml reductions is equal to 99.9% killing of bacteria.
(§2) The assay without any antibacterial agent was taken as control.

The subject of assay [2] is Klebsiella pneumoniae B 88 strain producing NDM-1, SHV, TEM and CTXM beta-lactamase enzymes. Nature of the assay: Time kill study against K. pneumoniae B 88. The format is cell-based. Further details: Effect on bacterial count when used alone: dose or concentration left out as unconfirmed. Conditions: for Bacterial count (Log10CFU/ml) 2 hours / Bacterial count (Log10CFU/ml) 4 hours / Bacterial count (Log10CFU/ml) 6 hours / Bacterial count (Log10CFU/ml) 8 hours: each agent at 4 mcg/ml, alone or in combination. The method, then: as §1, §2

With `O=C1N2C[C@@H](CC[C@H]2c2nnc([C@@H]3CCCN3)o2)N1OS(=O)(=O)O` [Compound J, trans-sulphuric acid mono-[2-(5-((S)-pyrrolidin-2-yl)-[1,3,4]-oxadiazol-2-yl)-7-oxo-1,6-diazabicyclo[3.2.1]-octan-6-yl] ester], in assay [1], the “Bacterial count (Log10CFU/ml) 2 hours” value is reported as 8.35 Log10CFU/ml, the “Bacterial count (Log10CFU/ml) 4 hours” value is on record as 8.5 Log10CFU/ml, the “Bacterial count (Log10CFU/ml) 6 hours” value is given as 8.8 Log10CFU/ml and the “Bacterial count (Log10CFU/ml) 8 hours” value came out at 9.2 Log10CFU/ml. Also, the “Effect on bacterial count when used alone” value in assay [1] (used alone at 4 μg/ml, throughout the duration of the study) is listed as “not effective to decrease the bacterial count”. Moreover, in assay [2], the “Bacterial count (Log10CFU/ml) 2 hours” value is recorded as 8.35 Log10CFU/ml, the “Bacterial count (Log10CFU/ml) 4 hours” value is reported as 8.5 Log10CFU/ml, the “Bacterial count (Log10CFU/ml) 6 hours” value is listed as 8.8 Log10CFU/ml and the “Bacterial count (Log10CFU/ml) 8 hours” value was 9.2 Log10CFU/ml. Moreover, the “Effect on bacterial count when used alone” value in assay [2] (used alone at 4 mcg/ml, throughout the duration of the study) is on record as “not effective to decrease the bacterial count”.
As for `C[C@@H](O)[C@H]1C(=O)N2C(C(=O)O)=C(SCCN=CN)C[C@H]12` [Imipenem, reference compound], in assay [1], the “Bacterial count (Log10CFU/ml) 2 hours” value is given as 8.35 Log10CFU/ml, the “Bacterial count (Log10CFU/ml) 4 hours” value is 8.78 Log10CFU/ml, the “Bacterial count (Log10CFU/ml) 6 hours” value is recorded as 8.88 Log10CFU/ml and the “Bacterial count (Log10CFU/ml) 8 hours” value is recorded as 9.09 Log10CFU/ml. In assay [2], the “Bacterial count (Log10CFU/ml) 2 hours” value came to 8.28 Log10CFU/ml, the “Bacterial count (Log10CFU/ml) 4 hours” value was found to be 8.7 Log10CFU/ml, the “Bacterial count (Log10CFU/ml) 6 hours” value came out at 8.9 Log10CFU/ml and the “Bacterial count (Log10CFU/ml) 8 hours” value was determined as 9.2 Log10CFU/ml.
